Source: US20090264528A1, “SERINE PALMITOYLCOA TRANSFERASE (SPT) INHIBITION BY MYRIOCIN OR GENETIC DEFICIENCY DECREASES CHOLESTEROL ABSORPTION” (The Research Foundation of State University of New York, priority 2008, published 2009)

What was measured:
[1] = system: ABCG8 mRNA; experiment: Real-time PCR, ABCG8 mRNA; format: in vivo, mouse; settings: for increase of ABCG8 mRNA levels compared with controls: small intestine, P<0.01
Description: (§1) FIGS. 9A-F depict that Mouse small intestine and liver NPC1L1, ABCG5/G8, and ABCA1 mRNA measurements. NPC1L1, ABCG5/G8, and ABCA1 mRNA levels were measured by real-time PCR as described in “Methods and Materials.” FIG. 9A, jejunum from WT mice with or without myriocin treatment; FIG. 9B, jejunum from apoE KO mice with or without myriocin treatment; FIG. 9C, jejunum from WT and Sptlc1^+/− mice; FIG. 9D, liver from WT mice with or without myriocin treatment; FIG. 9E, liver from apoE KO mice with or without myriocin treatment; FIG. 9F, liver from WT and Sptlc1^+/− mice. Values are mean±SD, n=5. *P<0.01.
(§2) Real-time PCR examined genes' expression: Mice were sacrificed by cervical dislocation. Jejunum was dissected, and total RNA extracted with Trizol (Invitrogen). cDNA was synthesized with an Invitrogen kit. Polymerase chain reaction (PCR) was performed on a total volume of 20 microl with the sybergreen kit from Applied Biosystems, 18S being used as an internal control. The amplification program consisted of activation at 95 degrees C. for 10 minutes, followed by 40 amplification cycles: 95 degrees C. for 15 seconds, 60 degrees C. for 1 minute. Each sample was triplicated. The genes' relative expression was expressed as mean±SD. The primers are located in the below table which lists the name, sequence, and sequence identification number.
(§3) For further elucidation of the possible mechanisms for cholesterol absorption reduction in the SPT-deficient small intestine, NPC1L1, ABCG5/G8, and ABCA1 mRNA levels in myriocin-treated WT, apoE KO, and Sptlc1^+/− mice, as well as in controls were measured. […] Moreover, intestinal MTP activity was not influenced by SPT deficiency (data not shown). Also, the liver mRNA levels were measured to find that myriocin treatment or Sptlc1 deficiency has no influence on ABCG5/G8 mRNA levels […]. […] NPC1L1 mRNA in WT or Sptlc1^+/− livers were not detected (data not shown).

[2] = system: ABCG5; experiment: Western blot of small intestine homogenates, ABCG5; format: in vivo, mouse; settings: WT and apoE KO mice, compared with nontreated animals
Description: (§4) FIG. 8 depicts that SPT deficiency decreased NPC1L1 and ABCA1, and increased ABCG5 in mouse small intestine. Tissue homogenates were prepared as described in Methods, and equal amounts of homogenates from each mouse were pooled in each group (n=5). A total of 50 microg pooled sample from each group was immunoblotted with antibodies against NPC1L1, ABCA1, and ABCG5. Immunoblots of beta (β)-actin were used as a loading control.
(§5) Preparation and Western blot analysis of small intestine homogenates: A total of 50-100 mg of small intestine sample was homogenized and lysed proteins were immunoblotted, as previously described, (3) with a polyclonal rabbit antihuman NPC1L1 antiserum 69B, a polyclonal rabbit antimouse ABCG5 antiserum, a polyclonal antimouse ABCA1 antibody, and a monoclonal mouse anti-(beta)β-actin antibody.
(§6) Next, Western blot measurements of NPC1L1 and ABCG5/G8 were completed, where the measurement were located in apical membranes of the enterocytes. […] Also, ABCA1 was measured, which is located in the basal membranes of the enterocytes and is involved in cholesterol secretion.

[3] = system: primary enterocyte; experiment: Cholesterol and oleic acid uptake by primary enterocytes; format: cell-based, mouse
Description: FIGS. 6A-D depict several graphs that illustrate that SPT deficient enterocytes absorb less cholesterol than controls. Enterocytes were isolated from mice (n=4, 12-14 weeks old) and resuspended in 4 ml of DMEM containing 0.05 microCi/ml of either [^14C]cholesterol (FIGS. 6A and 6C) or [^3H]oleic acid (FIGS. 6B and 6D). Enterocytes (100 microl) were collected at 5, 10, and 20 minutes, washed twice with DMEM, and cellular radioactivity was determined. The amounts of lipids were normalized to protein and plotted against time. FIGS. 6A and 6B, WT vs WT/myriocin; FIGS. 6C and 6D, WT vs Sptlc1^+/−, Values are mean±SD. *P<0.01.
Cholesterol uptake by primary enterocyte: The enterocyte cholesterol uptake study was carried out as disclosed in: Iqbal J, Hussain M M. Evidence for multiple complementary pathways for efficient cholesterol absorption in mice. J Lipid Res. 2005; 46:1491-1501, which is incorporated herein by reference in its entirety.
For further confirmation of the above in vivo observations, enterocytes were isolated from myriocin-treated or Sptlc1^+/− mice, as well as controls, incubated with radiolabeled cholesterol for varying times, and the cellular radioactivity was determined. […] Experiments were performed to study the uptake of [^3H]oleic acid.

[4] = system: NPC1L1 mRNA; experiment: Real-time PCR, NPC1L1 mRNA; format: in vivo, mouse; settings: small intestine (jejunum)
Description: as §1
Real-time PCR examined genes' expression: Mice were sacrificed by cervical dislocation. Jejunum was dissected, and total RNA extracted with Trizol (Invitrogen). cDNA was synthesized with an Invitrogen kit. […] The genes' relative expression was expressed as mean±SD. […]
For further elucidation of the possible mechanisms for cholesterol absorption reduction in the SPT-deficient small intestine, NPC1L1, ABCG5/G8, and ABCA1 mRNA levels in myriocin-treated WT, apoE KO, and Sptlc1^+/− mice, as well as in controls were measured. […] Also, the liver mRNA levels were measured to find that myriocin treatment or Sptlc1 deficiency has no influence on ABCG5/G8 mRNA levels (FIG. 7B). […] NPC1L1 mRNA in WT or Sptlc1^+/− livers were not detected (data not shown).

[5] = system: ABCA1; experiment: Western blot of small intestine homogenates, ABCA1; format: in vivo, mouse; settings: SPT-deficient small intestines (myriocin-treated, FIG. 6A) compared with controls
Description: as §4, §5, §6

[6] = system: cholesterol absorption; experiment: Absorption of [14C]cholesterol after a single gavage (intestine, liver, bile, plasma); format: in vivo, mouse; settings: 24 hours after single gavage, mean ± SD, n=5
Description: Cholesterol absorption studies: A classical fecal dual-isotope ratio method was used for the cholesterol absorption study. Briefly, a mixture of [^14C]-labeled (0.1 microCi) and unlabeled cholesterol (0.5 mg) and [^3H]sitostanol (0.2 microCi) in 15 microl of olive oil was fed to mice (10-12 weeks old). Feces were collected for 24 hours. The cholesterol absorption ratio was calculated as: % absorption={1−[fecal(^14C/^3H)]/administered(^14C/^3H)}×100. In some cases, mice were sacrificed, plasma collected, and radioactivity counted. Small intestines (from duodenum to ileum) were washed and cut into 2 cm segments. Each of these, as well as a part of the liver, were digested and radioactivity counted individually.
Next, the amounts of [^14C]cholesterol present in the intestine and those transported to plasma, liver, and bile in 24 hours were measured after a single bolus of radiolabeled cholesterol.

[7] = system: ABCG5 mRNA; experiment: Real-time PCR, ABCG5 mRNA; format: in vivo, mouse; settings: for increase of ABCG5 mRNA levels compared with controls: small intestine, P<0.01
Description: as §1, §2, §3

CCCCCCC(=O)CCCCCC/C=C/C[C@@H](O)[C@H](O)[C@@](N)(CO)C(=O)O [Myriocin, myriocin]
ABCG8 mRNA levels (printed ABCG5/G8) ([1]; liver): no influence | increase of ABCG8 mRNA levels compared with controls ([1]; WT mice): 46% | increase of ABCG8 mRNA levels compared with controls ([1]; apoE KO mice): 63% | ABCG5 protein mass in small intestine [2]: increased | uptake of [3H]oleic acid vs controls ([3]; enterocytes isolated from myriocin-treated mice): No significant changes | radiolabeled cholesterol uptake (cellular radioactivity) vs controls ([3]; enterocytes isolated from myriocin-treated mice, 5, 10, 20 minutes): significantly less radioactivity | NPC1L1 mRNA levels [4]: No significant changes | ABCA1 protein in small intestine [5]: decreased | [14C]cholesterol in Bile ([6]; ApoE KO mice): 2284 ± 521 dpm/ml | [14C]cholesterol in Intestine ([6]; ApoE KO mice): 4158 ± 499 dpm/g | [14C]cholesterol in Liver ([6]; ApoE KO mice): 3337 ± 649 dpm/g | [14C]cholesterol in Plasma ([6]; ApoE KO mice): 1350 ± 142 dpm/ml | [14C]cholesterol in Bile ([6]; WT mice): 2108 ± 394 dpm/ml | [14C]cholesterol in Intestine ([6]; WT mice): 5237 ± 478 dpm/g | [14C]cholesterol in Liver ([6]; WT mice): 4131 ± 575 dpm/g | [14C]cholesterol in Plasma ([6]; WT mice): 1734 ± 390 dpm/ml | ABCG5 mRNA levels (printed ABCG5/G8) ([7]; liver): no influence | increase of ABCG5 mRNA levels compared with controls ([7]; WT mice): 52% | increase of ABCG5 mRNA levels compared with controls ([7]; apoE KO mice): 69%
